Assay results published in US10077243B2, “Compounds for treating disorders mediated by metabotropic glutamate receptor 5, and methods of use thereof” (Sunovion Pharmaceuticals Inc., priority 2009, dated 2018).

Molecular target: T1, human mGluR5 (Homo sapiens, UniProt P41594)
T1 construct: expressed in transfected cells; host or cells: HEK293 cells stably expressing rat GLAST (EAAT1), stably transfected with pcDNAzeo3.1 carrying synthetic human mGluR5 DNA; zeocin-selected single clones
Test: In vitro cell-based FLIPR calcium assay for positive modulation of the activation of mGluR5 by glutamate (PAM EC50)
Settings: HEK293/GLAST cells expressing recombinant human mGluR5; FLIPR calcium signal; glutamate added at its EC20; read-out: mGluR5 PAM EC50
Summary of the method: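 HEK293/GLAST cells stably expressing mGluR5 were loaded with calcium-sensitive dye (25 °C, 45–60 min) in HBSS/20 mM HEPES. Test compounds were assayed in buffer containing glutamate at that day's EC20, with FLIPR fluorescence recorded. Controls contained 0.3% DMSO without compound.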

T1 sequence (P41594 21-1212): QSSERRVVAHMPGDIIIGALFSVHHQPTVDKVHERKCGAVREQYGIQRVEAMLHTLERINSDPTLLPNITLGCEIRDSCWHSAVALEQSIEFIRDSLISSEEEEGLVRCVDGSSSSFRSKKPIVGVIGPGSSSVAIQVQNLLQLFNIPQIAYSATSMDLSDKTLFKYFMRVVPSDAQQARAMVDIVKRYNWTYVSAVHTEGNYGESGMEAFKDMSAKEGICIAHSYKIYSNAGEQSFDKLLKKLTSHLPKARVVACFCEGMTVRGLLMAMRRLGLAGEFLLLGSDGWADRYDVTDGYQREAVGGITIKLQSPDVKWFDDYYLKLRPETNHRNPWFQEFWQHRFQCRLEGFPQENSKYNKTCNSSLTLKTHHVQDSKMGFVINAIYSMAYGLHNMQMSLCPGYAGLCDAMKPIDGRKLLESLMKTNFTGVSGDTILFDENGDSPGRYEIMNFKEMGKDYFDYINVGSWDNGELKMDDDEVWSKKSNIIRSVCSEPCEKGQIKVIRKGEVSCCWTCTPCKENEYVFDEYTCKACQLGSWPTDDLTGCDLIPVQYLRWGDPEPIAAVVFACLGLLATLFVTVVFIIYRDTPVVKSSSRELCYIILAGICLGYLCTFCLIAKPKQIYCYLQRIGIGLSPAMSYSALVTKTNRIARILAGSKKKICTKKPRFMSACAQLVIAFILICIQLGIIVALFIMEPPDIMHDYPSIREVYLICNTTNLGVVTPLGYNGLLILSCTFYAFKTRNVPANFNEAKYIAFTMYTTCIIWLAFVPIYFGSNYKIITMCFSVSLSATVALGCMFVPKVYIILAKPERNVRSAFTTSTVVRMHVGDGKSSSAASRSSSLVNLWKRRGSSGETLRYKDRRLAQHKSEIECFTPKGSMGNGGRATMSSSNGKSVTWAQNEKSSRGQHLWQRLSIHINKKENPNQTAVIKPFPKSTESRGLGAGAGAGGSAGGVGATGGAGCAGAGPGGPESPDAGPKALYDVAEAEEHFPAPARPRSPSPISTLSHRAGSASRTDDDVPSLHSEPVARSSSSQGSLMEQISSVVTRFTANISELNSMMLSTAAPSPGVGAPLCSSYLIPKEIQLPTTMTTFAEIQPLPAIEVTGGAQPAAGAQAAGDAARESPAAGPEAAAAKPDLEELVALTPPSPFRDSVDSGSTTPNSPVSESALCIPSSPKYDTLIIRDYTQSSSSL

EC50 [µM]	SMILES
< 0.01	CC1(F)CCc2nc3cc(C#Cc4ccccn4)ccc3c(=O)n2CC1 (stereo not shown) [Example 6.48, 8-fluoro-8-methyl-3-(pyridin-2-ylethynyl)-7,8,9,10-tetrahydroazepino[2,1-b]quinazolin-12(6H)-one]
0.1 to 0.3	CC1(O)CCc2nc3cc(C#Cc4ccccn4)ccc3c(=O)n2CC1 (stereo not shown) [Example 6.49, 8-hydroxy-8-methyl-3-(pyridin-2-ylethynyl)-7,8,9,10-tetrahydroazepino[2,1-b]quinazolin-12(6H)-one]
0.03 to 0.1	COC1(C)CCc2nc3cc(C#Cc4ccccn4)ccc3c(=O)n2CC1 (stereo not shown) [Example 6.50, 8-methoxy-8-methyl-3-(pyridin-2-ylethynyl)-7,8,9,10-tetrahydroazepino[2,1-b]quinazolin-12(6H)-one]
< 0.01	O=c1c2ccc(C#Cc3ccccn3)cc2nc2n1CCC1(CC2)CC1 [Example 6.51, 3-(pyridin-2-ylethynyl)-9,10-dihydro-6H-spiro[azepino[2,1-b]quinazoline-8,1′-cyclopropan]-12(7H)-one]
0.01 to 0.03	O=c1c2ccc(C#Cc3ccccc3)cc2nc2n1CCC1(CC2)OCCO1 [Example 7.1]
0.03 to 0.1	O=c1c2ccc(C#Cc3ccccc3F)cc2nc2n1CCC1(CC2)OCCO1 [Example 7.2]
0.03 to 0.1	O=c1c2ccc(C#Cc3ccc(F)cc3)cc2nc2n1CCC1(CC2)OCCO1 [Example 7.3]
0.1 to 0.3	O=c1c2ccc(C#Cc3ccc(F)c(F)c3)cc2nc2n1CCC1(CC2)OCCO1 [Example 7.5]
0.3 to 1	Cc1cc(F)ccc1C#Cc1ccc2c(=O)n3c(nc2c1)CCC1(CC3)OCCO1 [Example 7.6]
0.3 to 1	O=c1c2ccc(C#Cc3cccc(Cl)c3)cc2nc2n1CCC1(CC2)OCCO1 [Example 7.8]
0.3 to 1	O=c1c2ccc(C#Cc3ccc(Cl)cc3)cc2nc2n1CCC1(CC2)OCCO1 [Example 7.09]
0.03 to 0.1	O=c1c2ccc(C#Cc3ccccn3)cc2nc2n1CCC1(CC2)OCCO1 [Example 7.10]
0.3 to 1	O=c1c2ccc(C#Cc3cccnc3)cc2nc2n1CCC1(CC2)OCCO1 [Example 7.11]
0.01 to 0.03	O=c1c2ccc(C#Cc3ccncc3)cc2nc2n1CCC1(CC2)OCCO1 [Example 7.12]
0.03 to 0.1	O=c1c2ccc(C#Cc3ccc(F)cn3)cc2nc2n1CCC1(CC2)OCCO1 [Example 7.13]
0.1 to 0.3	O=c1c2ccc(C#Cc3cccnc3F)cc2nc2n1CCC1(CC2)OCCO1 [Example 7.14]
0.03 to 0.1	O=c1c2ccc(C#Cc3ccc(F)nc3)cc2nc2n1CCC1(CC2)OCCO1 [Example 7.15]
0.1 to 0.3	O=c1c2ccc(C#Cc3ccncc3F)cc2nc2n1CCC1(CC2)OCCO1 [Example 7.16]
0.03 to 0.1	O=c1c2ccc(C#Cc3ccnc(F)c3)cc2nc2n1CCC1(CC2)OCCO1 [Example 7.17]
0.3 to 1	N#Cc1cc(C#Cc2ccc3c(=O)n4c(nc3c2)CCC2(CC4)OCCO2)ccc1F [Example 7.19]

EC50 [µM]	SMILES
0.1 to 0.3	Cc1cccc(C#Cc2ccc3c(=O)n4c(nc3c2)CCC2(CC4)OCCO2)c1 [Example 7.31]
0.3 to 1	Cc1ccc(C#Cc2ccc3c(=O)n4c(nc3c2)CCC2(CC4)OCCO2)cc1 [Example 7.32]
0.03 to 0.1	N#Cc1cccc(C#Cc2ccc3c(=O)n4c(nc3c2)CCC2(CC4)OCCO2)c1 [Example 7.38]
0.3 to 1	N#Cc1ccc(C#Cc2ccc3c(=O)n4c(nc3c2)CCC2(CC4)OCCO2)cc1 [Example 7.39]
0.1 to 0.3	O=c1c2ccc(C#Cc3ccccc3C(F)(F)F)cc2nc2n1CCC1(CC2)OCCO1 [Example 7.40]
0.1 to 0.3	Cc1cccc(C#Cc2ccc3c(=O)n4c(nc3c2)CCC2(CC4)OCCO2)n1 [Example 7.46]
0.01 to 0.03	Cc1cc(C#Cc2ccc3c(=O)n4c(nc3c2)CCC2(CC4)OCCO2)ccn1 [Example 7.47]
0.03 to 0.1	Cc1ccnc(C#Cc2ccc3c(=O)n4c(nc3c2)CCC2(CC4)OCCO2)c1 [Example 7.48]
0.1 to 0.3	O=c1c2ccc(C#CC3=CCCC3)cc2nc2n1CCC1(CC2)OCCO1 [Example 7.51]
0.3 to 1	O=c1c2ccc(C#CC3CCCC3)cc2nc2n1CCC1(CC2)OCCO1 [Example 7.52]
0.3 to 1	O=c1c2ccc(C#CC3=CCCCC3)cc2nc2n1CCC1(CC2)OCCO1 [Example 7.53]
0.3 to 1	O=c1c2ccc(C#CC3CCCCC3)cc2nc2n1CCC1(CC2)OCCO1 [Example 7.54]
0.03 to 0.1	O=c1c2ccc(C#Cc3ccco3)cc2nc2n1CCC1(CC2)OCCO1 [Example 7.55]
0.03 to 0.1	O=c1c2ccc(C#Cc3ccoc3)cc2nc2n1CCC1(CC2)OCCO1 [Example 7.56]
0.03 to 0.1	O=c1c2ccc(C#Cc3cccs3)cc2nc2n1CCC1(CC2)OCCO1 [Example 7.57]
0.3 to 1	Cc1ccsc1C#Cc1ccc2c(=O)n3c(nc2c1)CCC1(CC3)OCCO1 [Example 7.58]
0.01 to 0.03	O=c1c2ccc(C#Cc3ccsc3)cc2nc2n1CCC1(CC2)OCCO1 [Example 7.59]
0.3 to 1	O=c1c2ccc(C#Cc3nccs3)cc2nc2n1CCC1(CC2)OCCO1 [Example 7.60]
0.03 to 0.1	Cc1csc(C#Cc2ccc3c(=O)n4c(nc3c2)CCC2(CC4)OCCO2)n1 [Example 7.61]
0.3 to 1	O=c1c2ccc(C#Cc3cscn3)cc2nc2n1CCC1(CC2)OCCO1 [Example 7.62]

EC50 [µM]	SMILES
0.3 to 1	Cc1scnc1C#Cc1ccc2c(=O)n3c(nc2c1)CCC1(CC3)OCCO1 [Example 7.63]
0.01 to 0.03	Cc1noc(C)c1C#Cc1ccc2c(=O)n3c(nc2c1)CCC1(CC3)OCCO1 [Example 7.67]
0.1 to 0.3	Cn1cc(C#Cc2ccc3c(=O)n4c(nc3c2)CCC2(CC4)OCCO2)cn1 [Example 7.69]
0.1 to 0.3	CN1CCc2nc3cc(C#Cc4ccc(F)cc4)ccc3c(=O)n2CC1 [Example 8.1, 8-((4-fluorophenyl)ethynyl)-3-methyl-2,3,4,5-tetrahydro-[1,4]diazepino[7,1-b]quinazolin-11(1H)-one]
0.1 to 0.3	CCN1CCc2nc3cc(C#Cc4ccc(F)cc4)ccc3c(=O)n2CC1 [Example 8.2, 3-ethyl-8-((4-fluorophenyl)ethynyl)-2,3,4,5-tetrahydro-[1,4]diazepino[7,1-b]quinazolin-11(1H)-one]
0.1 to 0.3	CC(C)N1CCc2nc3cc(C#Cc4ccc(F)cc4)ccc3c(=O)n2CC1 [Example 8.3, 8-((4-fluorophenyl)ethynyl)-3-isopropyl-2,3,4,5-tetrahydro-[1,4]diazepino[7,1-b]quinazolin-11(1H)-one]
0.1 to 0.3	O=c1c2ccc(C#Cc3cccc(F)c3)cc2nc2n1CCNCC2 [Example 8.6, 8-((3-fluorophenyl)ethynyl)-2,3,4,5-tetrahydro-[1,4]diazepino[7,1-b]quinazolin-11(1H)-one]
0.03 to 0.1	CN1CCc2nc3cc(C#Cc4cccc(F)c4)ccc3c(=O)n2CC1 [Example 8.7, 8-((3-fluorophenyl)ethynyl)-3-methyl-2,3,4,5-tetrahydro-[1,4]diazepino[7,1-b]quinazolin-11(1H)-one]
0.1 to 0.3	CCCN1CCc2nc3cc(C#Cc4cccc(F)c4)ccc3c(=O)n2CC1 [Example 8.8, 8-((3-fluorophenyl)ethynyl)-3-propyl-2,3,4,5-tetrahydro-[1,4]diazepino[7,1-b]quinazolin-11(1H)-one]
0.01 to 0.03	O=c1c2ccc(C#Cc3cccc(F)c3)cc2nc2n1CCN(Cc1ccccc1)CC2 [Example 8.9, 3-benzyl-8-((3-fluorophenyl)ethynyl)-2,3,4,5-tetrahydro-[1,4]diazepino[7,1-b]quinazolin-11(1H)-one]
0.1 to 0.3	COCCN1CCc2nc3cc(C#Cc4cccc(F)c4)ccc3c(=O)n2CC1 [Example 8.10, 8-((3-fluorophenyl)ethynyl)-3-(2-methoxyethyl)-2,3,4,5-tetrahydro-[1,4]diazepino[7,1-b]quinazolin-11(1H)-one]
0.3 to 1	O=c1c2ccc(C#Cc3cccc(F)c3)cc2nc2n1CCN(C1CCC1)CC2 [Example 8.11, 3-cyclobutyl-8-((3-fluorophenyl)ethynyl)-2,3,4,5-tetrahydro-[1,4]diazepino[7,1-b]quinazolin-11(1H)-one]
0.01 to 0.03	C=CCN1CCc2nc3cc(C#Cc4cccc(F)c4)ccc3c(=O)n2CC1 [Example 8.12, 3-allyl-8-((3-fluorophenyl)ethynyl)-2,3,4,5-tetrahydro-[1,4]diazepino[7,1-b]quinazolin-11(1H)-one]
0.1 to 0.3	O=c1c2ccc(C#Cc3cccc(F)c3)cc2nc2n1CCN(C1CCOC1)CC2 (stereo not shown) [Example 8.13, 8-((3-fluorophenyl)ethynyl)-3-(tetrahydrofuran-3-yl)-2,3,4,5-tetrahydro-[1,4]diazepino[7,1-b]quinazolin-11(1H)-one acetonitrile]
0.01 to 0.03	N#CCN1CCc2nc3cc(C#Cc4cccc(F)c4)ccc3c(=O)n2CC1 [Example 8.14, 2-(8-((3-fluorophenyl)ethynyl)-11-oxo-1,2,4,5-tetrahyrdro-[1,4]diazepino[7,1-b]quinazolin-3(11H)-yl)acetonitrile]
0.1 to 0.3	CNC(=O)CN1CCc2nc3cc(C#Cc4cccc(F)c4)ccc3c(=O)n2CC1 [Example 8.15, 2-(8-((3-fluorophenyl)ethynyl)-11-oxo-1,2,4,5-tetrahydro-[1,4]diazepino[7,1-b]quinazolin-3(11H)-yl)-N-methylacetamide]
0.1 to 0.3	O=c1c2ccc(C#Cc3cccc(F)c3)cc2nc2n1CCN(CC1CCCO1)CC2 (stereo not shown) [Example 8.16, 8-((3-fluorophenyl)ethynyl)-3-((tetrahydrofuran-2-yl)methyl)-2,3,4,5-tetrahydro-[1,4]diazepino[7,1-b]quinazolin-11(1H)-one]
0.1 to 0.3	CC(=O)N1CCc2nc3cc(C#Cc4cccc(F)c4)ccc3c(=O)n2CC1 [Example 8.17, 3-acetyl-8-((3-fluorophenyl)ethynyl)-2,3,4,5-tetrahydro-[1,4]diazepino[7,1-b]quinazolin-11(1H)-one]
